Assay results: paper PMC9763333, “In vitro characterization of immune modulating drug-eluting immunobeads towards transarterial embolization in cancer” (Scientific Reports, 2022)
Several values for one entry are separate records, joined by “and”; a condition that tells them apart may be missing. Equal entries are not always repeated. Entries after “also recorded” stand apart in the source; their conditions may differ. Where two headings read alike, the source gives them in different places.

Columns and labels:
Type in all cases: physicochemical
[1] = Drug solubilization by salt formation in acid; conditions: HPLC, two peaks observed
Experimental: The base form of each drug was suspended in deionized water and titrated with 0.1 N hydrochloric acid (Fisher Scientific, Hampton, NH) while stirring until all the base was solubilized and the volume adjusted to a final concentration of 2.5 mg/mL. The resulting solution was frozen, then lyophilized to yield solid drug-hydrochloride salt or used in its solubilized form for loading into DC Bead LUMI. […] Doxorubicin.HCl was readily solubilized and used without modification. […] A ZORBAX Eclipse Plus C8 reversed-phase column (Agilent) and UV detector at wavelength of 230 nm were used for GS-9620 analysis. The decomposition product of GS-9620 was analyzed with reversed phase high-performance liquid chromatography (Rp-HPLC) and LC/MS.

[2] = Drug release from DC Bead LUMI in saline; conditions: for release in saline from DC Bead LUMI after multiple washes in deionized water: single replicates
Experimental: […] Briefly, drug-loaded DC Bead LUMI or LC Bead (62.5 µL) were placed in vessels with 50 mL of saline ([…], pH 7.4) and were agitated with upright rocking motion at a set maximum rocking speed of 10 (70 rpm) for 144 h at 37 °C using Ward's® Rotating Mixer. At scheduled time intervals identical to the loading time points, 1 mL of release media was withdrawn and used for drug quantification. To maintain 50 mL total elution volume, 1 mL of fresh saline pre heated to 37 °C was replaced at each timepoint. […] 2.4. The cumulative amount of drug released at each time point was calculated by multiplying the concentration of each sample aliquot by the total volume (50 mL) of release media and adding the sum of the amount of drug removed for sampling at prior time points. […] The 50 mL volume was chosen to ensure infinite sink conditions where the maximum possible concentration of eluted drug would be at least 10 times more dilute than the maximum solubility. This ensures the rate of release is not affected by solution concentration but is only a function of interactions of the bead, drug, and saline.

[3] = Drug loading into DC Bead LUMI
Experimental: DC Bead LUMI was analyzed for its elemental composition by MEDAC Inc. […] Drug loading was performed in triplicate as previously reported[45] with slight modifications. […] Washing of beads is often a critical step in drug release studies as any drug left unbound to the beads affects the release profile and exaggerates the early burst release. […] However, washing was discontinued for TLR drugs as drug was continually observed even after multiple washes. […] The amount of drug loaded at the specified time points was calculated by subtracting the amount of drug remaining from the initial amount of drug in the loading solution and the cumulative amount of drug withdrawn for sampling. The maximum drug loaded in the beads was calculated once no further change in the concentration in the loading solution could be measured and before washing the beads. The relative percent drug loaded was defined as the maximum amount of drug loaded as a percent of the amount of SO3^- ions available in the beads on a molar basis using the following formula and the results are presented as the mean ± SD.

[4] = Washing of drug-loaded beads with deionized water and microscopic appearance
Experimental: Drug loading was performed in triplicate as previously reported[45] with slight modifications. […] Washing of beads is often a critical step in drug release studies as any drug left unbound to the beads affects the release profile and exaggerates the early burst release. […] However, washing was discontinued for TLR drugs as drug was continually observed even after multiple washes. […] The amount of drug loaded at the specified time points was calculated by subtracting the amount of drug remaining from the initial amount of drug in the loading solution and the cumulative amount of drug withdrawn for sampling. The maximum drug loaded in the beads was calculated once no further change in the concentration in the loading solution could be measured and before washing the beads. The relative percent drug loaded was defined as the maximum amount of drug loaded as a percent of the amount of SO3^- ions available in the beads on a molar basis using the following formula and the results are presented as the mean ± SD.

[5] = pKa measurement by triple titration in methanol–water co-solvent with Yasuda-Shedlovsky extrapolation; conditions: for pKa: methanol–water co-solvent, aqueous value by Yasuda-Shedlovsky extrapolation; for psKa1 / psKa2: methanol–water
Experimental: pKa measurements were performed by Pion Inc, UK Ltd using known methods as previously reported[47]–[50] or calculated by using software MoKa (Molecular Discovery, Borehamwood, Hertfordshire, UK, https://www.moldiscovery.com/software/moka/#references) or directly obtained from the literature. For GARD and DSR 6434, a triple titration was carried out under methanol–water co-solvent conditions from pH 2.0–12.0 at concentrations of 2.3–1.3 mM (the methanol mixing ratio varied from 49.0 to 28.9% w/w) and 1.5–0.9 mM (the methanol mixing ratio varied from 49.6 to 29.1% w/w), respectively.

CCCCOc1nc(N)c2c(n1)N(Cc1cccc(CN3CCCC3)c1)CC(=O)N2 [GS-9620]
stability in the solubilizing conditions [1]: partially decomposed; also recorded: not stable

CCNCc1nc2c(N)nc3ccccc3c2n1CC(C)(C)O [GARD, gardiquimod]
release in saline from DC Bead LUMI after multiple washes in deionized water ([2]; 5 min): 13.8548 mg/mL of beads and 16.8316 mg/mL of beads and 16.696 mg/mL of beads | release in saline from DC Bead LUMI after multiple washes in deionized water ([2]; 15 min): 6.978 mg/mL of beads and 10.4756 mg/mL of beads and 7.4826 mg/mL of beads | release in saline from DC Bead LUMI after multiple washes in deionized water ([2]; 30 min): 11.5876 mg/mL of beads and 14.6655 mg/mL of beads and 10.6769 mg/mL of beads | release in saline from DC Bead LUMI after multiple washes in deionized water ([2]; 45 min): 12.1501 mg/mL of beads and 14.1614 mg/mL of beads and 16.9158 mg/mL of beads | release in saline from DC Bead LUMI after multiple washes in deionized water ([2]; 60 min): 12.3872 mg/mL of beads and 11.2006 mg/mL of beads and 10.7852 mg/mL of beads | release in saline from DC Bead LUMI after multiple washes in deionized water ([2]; 120 min): 6.495 mg/mL of beads and 18.2582 mg/mL of beads and 8.614 mg/mL of beads | release in saline from DC Bead LUMI after multiple washes in deionized water ([2]; 180 min): 13.4173 mg/mL of beads and 9.599 mg/mL of beads and 8.837 mg/mL of beads | release in saline from DC Bead LUMI after multiple washes in deionized water ([2]; 240 min): 11.2341 mg/mL of beads and 19.3333 mg/mL of beads and 19.2869 mg/mL of beads | release in saline from DC Bead LUMI after multiple washes in deionized water ([2]; 300 min): 11.4298 mg/mL of beads and 19.0264 mg/mL of beads and 20.0563 mg/mL of beads | release in saline from DC Bead LUMI after multiple washes in deionized water ([2]; 360 min): 14.8464 mg/mL of beads and 16.7671 mg/mL of beads and 17.7148 mg/mL of beads | release in saline from DC Bead LUMI after multiple washes in deionized water ([2]; 420 min): 10.7872 mg/mL of beads and 18.9583 mg/mL of beads and 16.16 mg/mL of beads | release in saline from DC Bead LUMI after multiple washes in deionized water ([2]; 480 min): 14.0597 mg/mL of beads and 15.9257 mg/mL of beads and 20.8469 mg/mL of beads | release in saline from DC Bead LUMI after multiple washes in deionized water ([2]; 1440 min): 16.384 mg/mL of beads and 22.102 mg/mL of beads and 14.1626 mg/mL of beads | release in saline from DC Bead LUMI after multiple washes in deionized water ([2]; 2880 min): 17.882 mg/mL of beads and 19.297 mg/mL of beads and 22.6822 mg/mL of beads | release in saline from DC Bead LUMI after multiple washes in deionized water ([2]; 4320 min): 17.16 mg/mL of beads and 21.3309 mg/mL of beads and 22.7224 mg/mL of beads | release in saline from DC Bead LUMI after multiple washes in deionized water ([2]; 8640 min): 16.9125 mg/mL of beads and 21.9345 mg/mL of beads and 17.7447 mg/mL of beads | release behaviour in saline ([2]; DC Bead LUMI): rapid release | Relative percent drug loaded in DC Bead LUMI over time ([3]; 5 min, single replicates): 55.2766% and 60.9514% and 46.1831% | Relative percent drug loaded in DC Bead LUMI over time ([3]; 15 min, single replicates): 43.0802% and 66.0616% and 55.143% | Relative percent drug loaded in DC Bead LUMI over time ([3]; 30 min, single replicates): 48.003% and 64.9413% and 48.1153% | Relative percent drug loaded in DC Bead LUMI over time ([3]; 45 min, single replicates): 42.5221% and 54.7578% and 59.077% | Relative percent drug loaded in DC Bead LUMI over time ([3]; 60 min, single replicates): 49.9393% and 67.8727% and 53.1769% | Relative percent drug loaded in DC Bead LUMI over time ([3]; 120 min, single replicates): 71.3739% and 70.6276% and 67.3547% | Relative percent drug loaded in DC Bead LUMI over time ([3]; 180 min, single replicates): 60.3259% and 72.9711% and 72.9791% | Relative percent drug loaded in DC Bead LUMI over time ([3]; 240 min, single replicates): 61.2934% and 72.504% and 74.4803% | Relative percent drug loaded in DC Bead LUMI over time ([3]; 300 min, single replicates): 61.9583% and 65.0576% and 73.7822% | Relative percent drug loaded in DC Bead LUMI over time ([3]; 360 min, single replicates): 62.1239% and 73.4051% and 73.7491% | Relative percent drug loaded in DC Bead LUMI over time ([3]; 420 min, single replicates): 57.6019% and 70.5665% and 69.0951% | Relative percent drug loaded in DC Bead LUMI over time ([3]; 480 min, single replicates): 60.233% and 70.8296% and 71.2658% | Relative percent drug loaded in DC Bead LUMI over time ([3]; 1440 min, single replicates): 61.7405% and 70.3053% and 72.3473% | Relative percent drug loaded in DC Bead LUMI over time ([3]; 2880 min, single replicates): 58.2466% and 69.7502% and 67.5798% | Relative percent drug loaded in DC Bead LUMI over time ([3]; 4320 min, single replicates): 62.5088% and 74.175% and 74.3147% | Relative percent drug loaded in DC Bead LUMI over time ([3]; 8640 min, single replicates): 62.7357% and 73.7536% and 73.1477% | loading behaviour ([3]; DC Bead LUMI): Fast loading | Relative percent drug loaded (maximum, percent of SO3− available on a molar basis) ([3]; DC Bead LUMI, mean (n = 3)): 73% and 73.34% | equivalent of drug loaded to sulfonated bead ([3]; DC Bead LUMI, mean ± SD): 0.21 ± 0.00 mM drug/ml beads | Maximum drug loaded ([3]; DC Bead LUMI, mean ± SD, n = 3, base form except Dox (salt form)): 65.97 ± 1.54 mg drug/ml beads | Maximum drug loaded (Triplicate), % ([3]; DC Bead LUMI, single replicates): 71.3739% and 74.175% and 74.4803% | Drug: sulfonate ([3]; molar ratio at maximum loading, DC Bead LUMI): 0.733 | Theoretical maximum loading level based on SO3− contents ([3]; per mL DC Bead LUMI, assuming 1:1 drug to sulfonate): 89.95 mg | removal of drug from beads by repeated washing with deionized water ([4]; DC Bead LUMI): partially removed | aggregation of drug during washing / elution ([4]; deionized water and saline, microscopy): absence of aggregated | pKa ([5]; read-out: pKa (first, measured)): 7.02 | pKa ([5]; read-out: pKa (second, measured)): 8.02 | psKa1 ([5]; dielectric constant 56.8): 6.81 | psKa2 ([5]; dielectric constant 56.8): 7.83 | psKa1 ([5]; dielectric constant 61.6): 6.89 | psKa2 ([5]; dielectric constant 61.6): 7.88 | psKa1 ([5]; dielectric constant 66): 6.92 | psKa2 ([5]; dielectric constant 66): 7.94
